Assay results: PMC8518114, “Safety, tolerability and pharmacokinetics of emodepside, a potential novel treatment for onchocerciasis (river blindness), in healthy male subjects” (British Journal of Clinical Pharmacology, 2021)
Read-outs that look alike come from different tables or passages of the source.

Test: Plasma pharmacokinetics of emodepside, single ascending dose (SAD) and food effect study
Format: in vivo, human
Details: for AUC 0–24 /D / C max /D: dose-normalised; for t ½ 0–24 (dominant half-life): terminal slope of log concentration–time (0–24 h) curve; for half-life: ln2/λz, read-out: Terminal t ½ (converted); for Tmax: median (range)
Description: Emodepside and placebo were supplied as a LSF and a standard immediate‐release (IR) tablet. The LSF was a 0.1% (w/v) solution containing 1 mg emodepside/mL. Conventional IR tablets containing emodepside in crystalline form were supplied in 2 dosage strengths, 5 and 20 mg, for the single ascending dose (SAD) study.
To preclude any dietary effects on the PK of emodepside, subjects in the fasting cohorts fasted for 9 hours before receiving the IP. Subjects in the fed cohort fasted for 10 hours prior to dosing and received a standard high‐calorie, high‐fat breakfast 30 minutes prior to dosing.
Blood samples (5 mL) were collected by venepuncture or via a cannula into EDTA tubes and immediately placed on ice. Samples were centrifuged at 1500 g for 10 minutes at 4°C. The plasma was aliquoted into 2 polypropylene tubes, which were stored at −20°C. Blood samples for PK analysis were taken at the following time points: • SAD: predose and 0.5, 1, 1.5, 2, 2.5, 3, 4, 5, 6, 8, 12, 24, 36, 48, 72, 96, 120, 144 and 168 hours, and 21 days postdose (cohort 1–9) or predose and 0.5, 1, 3, 6, 8, 12, 24, 36, 48, 72, 96, 120, 144 and 168 hours, and 10, 14, 18 and 21 days postdose (cohort 10). • Multiple ascending dose (MAD), as below: • on Day 1: predose and at 0.25, 0.5, 1, 1.5, 2, 2.5, 3, 4, 6, 8, 12 and 15 hours postdose • on Days 2–9: before the morning dose • on Day 10: before and at 0.25, 0.5, 1, 1.5, 2, 2.5, 3, 4, 6, 8, 12 and 15 hours • on Days 11, 12, 13, 14, 15, 18, 21, 24 and 30.
Emodepside plasma concentrations were determined by a validated high performance liquid chromatography–tandem mass spectrometry assay, using a Alltima C18 5 μm 150 mm x 2.1 mm column and an Applied Biosystems API4000 Turbo Ion Spray detector using positive ion mode. Analyst version 1.3.2 or 1.6.3 software, obtained from AB Sciex UK Ltd, Warrington, UK was used for chromatogram data analysis and quantitative calculations. Deuterated emodepside‐D16 was used as the internal standard. The lower limit of quantitation for emodepside in plasma was 1 ng/mL. Values below this limit were not used to calculate the PK parameters, except values that were below the limit of quantification before Cmax, which were set to zero.
The highest observed plasma concentration (Cmax) was determined directly from concentration–time data, as was the time to reach maximum plasma concentration (tmax). The area under the plasma concentration–time curve from time zero (predose) to the time of last quantifiable concentration (AUC0‐last) was calculated using the linear‐log trapezoidal rule. Elimination half‐life (t1/2) was calculated by the equation ln2/λz.
Statistical analyses were performed using SAS version 9.3 (Cary, NC, USA). Demographic data and baseline characteristics were listed and summarised. […] PK parameters were derived from plasma concentration vs. time data using a noncompartmental analysis in Phoenix WinNonlin version 7 (Certara Inc., Princeton, NJ, USA). Plasma concentration vs. time data and PK parameters were listed, and summarised by treatment, using descriptive statistics. Mean concentrations were calculated only if at least ⅔ of the individual concentrations were above the lower limit of quantification. […] Planned sampling times were used to summarise plasma‐concentration data; actual sampling times were used in the derivation of PK parameters.

[1] = SAD, single oral 1 mg LSF fasting, mean
[2] = SAD, single oral 2.5 mg LSF fasting, mean
[3] = SAD, single oral 5 mg IRT fasting, mean
[4] = SAD, single oral 5 mg LSF fasting, mean
[5] = SAD, single oral 10 mg LSF Fed, mean
[6] = SAD, single oral 10 mg LSF fasting, mean
[7] = SAD, single oral 20 mg IRT fasting, mean
[8] = SAD, single oral 20 mg LSF fasting, mean
[9] = SAD, single oral 40 mg LSF fasting, mean
[10] = human, in vivo, po, 1 mg, SAD, single oral 1 mg LSF fasting, plasma, HPLC-MS/MS, mean
[11] = human, in vivo, po, 2.5 mg, SAD, single oral 2.5 mg LSF fasting, plasma, HPLC-MS/MS, mean
[12] = human, in vivo, po, 5 mg, SAD, single oral 5 mg IRT fasting, plasma, HPLC-MS/MS, mean
[13] = human, in vivo, po, 5 mg, SAD, single oral 5 mg LSF fasting, plasma, HPLC-MS/MS, mean
[14] = human, in vivo, po, 10 mg, SAD, single oral 10 mg LSF Fed, plasma, HPLC-MS/MS, mean
[15] = human, in vivo, po, 10 mg, SAD, single oral 10 mg LSF fasting, plasma, HPLC-MS/MS, mean
[16] = human, in vivo, po, 20 mg, SAD, single oral 20 mg IRT fasting, plasma, HPLC-MS/MS, mean
[17] = human, in vivo, po, 20 mg, SAD, single oral 20 mg LSF fasting, plasma, HPLC-MS/MS, mean
[18] = human, in vivo, po, 40 mg, SAD, single oral 40 mg LSF fasting, plasma, HPLC-MS/MS, mean

CC(C)C[C@H]1C(=O)O[C@H](Cc2ccc(N3CCOCC3)cc2)C(=O)N(C)[C@@H](CC(C)C)C(=O)O[C@H](C)C(=O)N(C)[C@@H](CC(C)C)C(=O)O[C@H](Cc2ccc(N3CCOCC3)cc2)C(=O)N(C)[C@@H](CC(C)C)C(=O)O[C@H](C)C(=O)N1C [emodepside]
Plasma emodepside concentrations lower in the first 24 hours postdose, based on geometric mean Cmax (SAD, all dose levels and both formulations): approximately 90% | AUC0-last in fed relative to fasting conditions (SAD, single 10-mg dose of the LSF): not statistically different | AUC 0–24 /D [1]: 100 [h.ng/mL]/mg | C max /D [1]: 18.6 [ng/mL]/mg | t ½ 0–24 (dominant half-life) [1]: 8.45 h | AUC 0–24 /D [2]: 100 [h.ng/mL]/mg | C max /D [2]: 15.0 [ng/mL]/mg | t ½ 0–24 (dominant half-life) [2]: 10.6 h | AUC 0–24 /D [3]: 36.5 [h.ng/mL]/mg | C max /D [3]: 5.15 [ng/mL]/mg | AUC 0–24 (SAD, single oral 5 mg IRT fasting, plasma, HPLC-MS/MS, mean): 183 ng·h/mL | t ½ 0–24 (dominant half-life) [3]: 10.8 h | AUC 0–24 /D [4]: 104 [h.ng/mL]/mg | C max /D [4]: 18.4 [ng/mL]/mg | AUC 0–24 (SAD, single oral 5 mg LSF fasting, plasma, HPLC-MS/MS, mean): 522 ng·h/mL | t ½ 0–24 (dominant half-life) [4]: 11.6 h | AUC 0–24 /D [5]: 67.3 [h.ng/mL]/mg | C max /D [5]: 7.19 [ng/mL]/mg | t ½ 0–24 (dominant half-life) [5]: 11.1 h | AUC 0–24 /D [6]: 99.6 [h.ng/mL]/mg | C max /D [6]: 17.2 [ng/mL]/mg | t ½ 0–24 (dominant half-life) [6]: 10.9 h | AUC 0–24 /D [7]: 11.2 [h.ng/mL]/mg | C max /D [7]: 1.51 [ng/mL]/mg | AUC 0–24 (SAD, single oral 20 mg IRT fasting, plasma, HPLC-MS/MS, mean): 223 ng·h/mL | t ½ 0–24 (dominant half-life) [7]: 11.3 h | AUC 0–24 /D [8]: 95.3 [h.ng/mL]/mg | C max /D [8]: 15.3 [ng/mL]/mg | AUC 0–24 (SAD, single oral 20 mg LSF fasting, plasma, HPLC-MS/MS, mean): 1910 ng·h/mL | t ½ 0–24 (dominant half-life) [8]: 10.5 h | AUC 0–24 /D [9]: 103 [h.ng/mL]/mg | C max /D [9]: 14.9 [ng/mL]/mg | AUC last (SAD, single oral 40 mg LSF fasting, plasma, HPLC-MS/MS, mean): 16 400 h.ng/mL | Half-life during the first 24 hours after dosing (distribution phase) (healthy subjects, oral, across the 2 studies): around 11 hours | AUC 0–24 h [10]: 100 ng·h/mL | AUC(0-t) [10]: 182 ng·h/mL | Cmax [10]: 18.6 ng/mL | half-life (human, in vivo, po, 1 mg, SAD, single oral 1 mg LSF fasting, plasma, mean): 42.7 h | Tmax (human, in vivo, po, 1 mg, SAD, single oral 1 mg LSF fasting, plasma): 1 h | AUC 0–24 h [11]: 250 ng·h/mL | AUC(0-t) [11]: 845 ng·h/mL | Cmax [11]: 37.6 ng/mL | half-life (human, in vivo, po, 2.5 mg, SAD, single oral 2.5 mg LSF fasting, plasma, mean): 449 h | Tmax (human, in vivo, po, 2.5 mg, SAD, single oral 2.5 mg LSF fasting, plasma): 1 h | F rel (human, in vivo, po, 5 mg): 35% | AUC(0-t) [12]: 501 ng·h/mL | Cmax [12]: 25.7 ng/mL | half-life (human, in vivo, po, 5 mg, SAD, single oral 5 mg IRT fasting, plasma, mean): 267 h | Tmax (human, in vivo, po, 5 mg, SAD, single oral 5 mg IRT fasting, plasma): 2 h | AUC(0-t) [13]: 1700 ng·h/mL | Cmax [13]: 92.1 ng/mL | half-life (human, in vivo, po, 5 mg, SAD, single oral 5 mg LSF fasting, plasma, mean): 415 h | Tmax (human, in vivo, po, 5 mg, SAD, single oral 5 mg LSF fasting, plasma): 1 h | AUC 0–24 h [14]: 673 ng·h/mL | AUC(0-t) [14]: 3390 ng·h/mL | Cmax [14]: 71.9 ng/mL | half-life (human, in vivo, po, 10 mg, SAD, single oral 10 mg LSF Fed, plasma, mean): 531 h | Tmax (human, in vivo, po, 10 mg, SAD, single oral 10 mg LSF Fed, plasma): 2.5 h | AUC 0–24 h [15]: 996 ng·h/mL | AUC(0-t) [15]: 3070 ng·h/mL | Cmax [15]: 172 ng/mL | half-life (human, in vivo, po, 10 mg, SAD, single oral 10 mg LSF fasting, plasma, mean): 365 h | Tmax (human, in vivo, po, 10 mg, SAD, single oral 10 mg LSF fasting, plasma): 1 h | AUC(0-t) [16]: 667 ng·h/mL | Cmax [16]: 30.2 ng/mL | half-life (human, in vivo, po, 20 mg, SAD, single oral 20 mg IRT fasting, plasma, mean): 348 h | Tmax (human, in vivo, po, 20 mg, SAD, single oral 20 mg IRT fasting, plasma): 2 h | AUC(0-t) [17]: 7480 ng·h/mL | Cmax [17]: 306 ng/mL | half-life (human, in vivo, po, 20 mg, SAD, single oral 20 mg LSF fasting, plasma, mean): 590 h | Tmax (human, in vivo, po, 20 mg, SAD, single oral 20 mg LSF fasting, plasma): 1.5 h | AUC 0–24 h [18]: 4110 ng·h/mL | Cmax [18]: 595 ng/mL | half-life (human, in vivo, po, 40 mg, SAD, single oral 40 mg LSF fasting, plasma, mean): 392 h | Tmax (human, in vivo, po, 40 mg, SAD, single oral 40 mg LSF fasting, plasma): 1.05 h | Frel, relative bioavailability IR tablet vs. LSF (in vivo): 11.71%
